The target of one experiment is fungal (fACC2) (UniProt Q00955). The following applies: read-out: fACC2 (in vitro ACC2 Inhibition Assay, IC50); Table 2b, additional results; ADP-Glo, 5 nM ACC2, 20 μM ATP, 20 μM acetyl-CoA.
A further experiment has as its system Septoria tritici (St). Kind of experiment: Growth inhibition assay of fungal pathogens, St. The note with it: Zymoseptoria tritici, 48 h, growth inhibition at 48 hours vs 2% DMSO control. The class given is cell-based. The procedure, abridged:
(§1)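 Spores diluted in 17% V8 liquid media and incubated with compound at final 50, 10, 2 ppm or 2, 0.4, 0.08 ppm (2% DMSO). OD600 plus visual ratings at 24 and 48 hours, blank-subtracted; percent growth inhibition from 48 h readings relative to 2% DMSO control.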

For another experiment, the system named is Botrtyis cinerea (Bc). The experiment in a line: Growth inhibition assay of fungal pathogens, Bc. The following applies: 48 h, growth inhibition at 48 hours vs 2% DMSO control. The class given is cell-based. In outline:
as §1

A further experiment has as its target human (hACC2) (Homo sapiens, UniProt O00763). The experiment in a line: In vitro ACC inhibition assay (ADP-Glo), hACC2. The class given is biochemical. The following applies: Table 2b, additional results, 5 nM ACC2, 20 μM ATP, 20 μM acetyl-CoA. As to the method:
The detailed procedure is as follows. […] 10 μL ADP glo reagent was added. […] 20 μL kinase detection reagent was added.

Experiment [1] deals with Phytophthora capsici (Pc). The experiment in a line: Growth inhibition assay of fungal pathogens, Pc. The note with it: 48 h. The class given is cell-based. In outline: as §1
For a further experiment, the system named is Rhizoctonia solani (Rs). Kind of experiment: Growth inhibition assay of fungal pathogens, Rs. The class given is cell-based. The note with it: 48 h.
The test system of experiment [2] is Fusarium moniliforme (Fm). The experiment in a line: Growth inhibition assay of fungal pathogens, Fm. The following applies: Fusarium verticillioides, 48 h, read-out: Concentration at 90% Inhibition Fm. The class given is cell-based. The procedure, abridged: as §1
The test system of a further experiment is C. krusei. Kind of experiment: Antifungal Activity Assay (broth microtiter MIC), C. krusei. The class given is cell-based, Candida krusei. The following applies: Pichia kudriavzevii, ATCC6258, 48 h. The procedure, abridged: (§2)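 MIC read by eye at 48 h, comparing challenged wells with the growth control. Yeasts grown overnight on Sabouraud dextrose agar at 35° C, suspended in RPMI 1640+MOPS and added at 2.5×10^3 CFU/mL final, following CLSI M27-A3.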

The next experiment deals with C. parapsilosis. Kind of experiment: Antifungal Activity Assay (broth microtiter MIC), C. parapsilosis. The class given is cell-based, Candida parapsilosis. The note with it: Lodderomyces parapsilosis, ATCC22019, 48 h. In outline: as §2
The test system of a further experiment is C. albicans. Kind of experiment: Antifungal Activity Assay (broth microtiter MIC), C. albicans. The class given is cell-based, Candida albicans. The following applies: Candida albicans, ATCC90028, 48 h. In outline: as §2
Experiment [3] has as its system Fusarium virguliforme (Fv). Kind of experiment: Growth inhibition assay of fungal pathogens, Fv. The class given is cell-based. The note with it: 48 h. In outline: as §1
The test system of experiment [4] is Collectotrichum graminicola (Cg). Kind of experiment: Growth inhibition assay of fungal pathogens, Cg. The following applies: 48 h, growth inhibition at 48 hours vs 2% DMSO control. The class given is cell-based. The procedure, abridged: as §1
The subject of another experiment is Diplodia maydis (Dm). The experiment in a line: Growth inhibition assay of fungal pathogens, Dm. The class given is cell-based. The note with it: Stenocarpella maydis, 48 h, growth inhibition at 48 hours vs 2% DMSO control. In outline: as §1
Setting [5] is: Septoria tritici, read-out: Concentration at 90% Inhibition St.
[6] abbreviates: Botrtyis cinerea, read-out: Concentration at 90% Inhibition Bc.
Where [7] appears, read: growth inhibition at 48 hours vs 2% DMSO control, read-out: Concentration at 90% Inhibition Pc.
Where [8] appears, read: mycelial plugs, growth inhibition at 48 hours vs 2% DMSO control, read-out: Concentration at 90% Inhibition Rs.
[9] abbreviates: Fusarium moniliforme, growth inhibition at 48 hours vs 2% DMSO control.
Setting [10] is: Table 3b (additional results), ATCC 6258, 3 replicates, MIC recorded at 48 h, read-out: MIC, C. krusei ATCC 6258.
Setting [11] is: Table 3b (additional results), ATCC 22019, 3 replicates, MIC recorded at 48 h, read-out: MIC, C. parapsilosis ATCC 22019.
Setting [12] is: Table 3b (additional results), ATCC 90028, 3 replicates, MIC recorded at 48 h, read-out: MIC, C. albicans ATCC 90028.
Where [13] appears, read: growth inhibition at 48 hours vs 2% DMSO control, read-out: Concentration at 90% Inhibition Fv.
Setting [14] is: Collectotrichum graminicola, read-out: Concentration at 90% Inhibition Cg.
The mark [15] stands for this setting: Diplodia maydis, read-out: Concentration at 90% Inhibition Dm.
The mark [16] stands for this setting: read-out: Concentration at 90% Inhibition St, Septoria tritici.
Where [17] appears, read: read-out: Concentration at 90% Inhibition Bc, Botrtyis cinerea.
[18] abbreviates: read-out: Concentration at 90% Inhibition Pc, Phytophthora capsici, growth inhibition at 48 hours vs 2% DMSO control.
Setting [19] is: read-out: Concentration at 90% Inhibition Rs, Rhizoctonia solani, mycelial plugs, growth inhibition at 48 hours vs 2% DMSO control.
Setting [20] is: read-out: MIC, C. krusei ATCC 6258, Table 3b (additional results), 3 replicates, MIC recorded at 48 h.
[21] abbreviates: read-out: MIC, C. parapsilosis ATCC 22019, Table 3b (additional results), 3 replicates, MIC recorded at 48 h.
[22] abbreviates: read-out: MIC, C. albicans ATCC 90028, Table 3b (additional results), 3 replicates, MIC recorded at 48 h.
[23] abbreviates: read-out: Concentration at 90% Inhibition Fv, Fusarium virguliforme, growth inhibition at 48 hours vs 2% DMSO control.
[24] abbreviates: read-out: Concentration at 90% Inhibition Cg, Collectotrichum graminicola.
Where [25] appears, read: read-out: Concentration at 90% Inhibition Dm, Diplodia maydis.

Values after ≈ are worked out from the molar mass of the structure shown. Where two headings read alike, the source gives them in different places.

Sequence of human (hACC2) (O00763 whole entry): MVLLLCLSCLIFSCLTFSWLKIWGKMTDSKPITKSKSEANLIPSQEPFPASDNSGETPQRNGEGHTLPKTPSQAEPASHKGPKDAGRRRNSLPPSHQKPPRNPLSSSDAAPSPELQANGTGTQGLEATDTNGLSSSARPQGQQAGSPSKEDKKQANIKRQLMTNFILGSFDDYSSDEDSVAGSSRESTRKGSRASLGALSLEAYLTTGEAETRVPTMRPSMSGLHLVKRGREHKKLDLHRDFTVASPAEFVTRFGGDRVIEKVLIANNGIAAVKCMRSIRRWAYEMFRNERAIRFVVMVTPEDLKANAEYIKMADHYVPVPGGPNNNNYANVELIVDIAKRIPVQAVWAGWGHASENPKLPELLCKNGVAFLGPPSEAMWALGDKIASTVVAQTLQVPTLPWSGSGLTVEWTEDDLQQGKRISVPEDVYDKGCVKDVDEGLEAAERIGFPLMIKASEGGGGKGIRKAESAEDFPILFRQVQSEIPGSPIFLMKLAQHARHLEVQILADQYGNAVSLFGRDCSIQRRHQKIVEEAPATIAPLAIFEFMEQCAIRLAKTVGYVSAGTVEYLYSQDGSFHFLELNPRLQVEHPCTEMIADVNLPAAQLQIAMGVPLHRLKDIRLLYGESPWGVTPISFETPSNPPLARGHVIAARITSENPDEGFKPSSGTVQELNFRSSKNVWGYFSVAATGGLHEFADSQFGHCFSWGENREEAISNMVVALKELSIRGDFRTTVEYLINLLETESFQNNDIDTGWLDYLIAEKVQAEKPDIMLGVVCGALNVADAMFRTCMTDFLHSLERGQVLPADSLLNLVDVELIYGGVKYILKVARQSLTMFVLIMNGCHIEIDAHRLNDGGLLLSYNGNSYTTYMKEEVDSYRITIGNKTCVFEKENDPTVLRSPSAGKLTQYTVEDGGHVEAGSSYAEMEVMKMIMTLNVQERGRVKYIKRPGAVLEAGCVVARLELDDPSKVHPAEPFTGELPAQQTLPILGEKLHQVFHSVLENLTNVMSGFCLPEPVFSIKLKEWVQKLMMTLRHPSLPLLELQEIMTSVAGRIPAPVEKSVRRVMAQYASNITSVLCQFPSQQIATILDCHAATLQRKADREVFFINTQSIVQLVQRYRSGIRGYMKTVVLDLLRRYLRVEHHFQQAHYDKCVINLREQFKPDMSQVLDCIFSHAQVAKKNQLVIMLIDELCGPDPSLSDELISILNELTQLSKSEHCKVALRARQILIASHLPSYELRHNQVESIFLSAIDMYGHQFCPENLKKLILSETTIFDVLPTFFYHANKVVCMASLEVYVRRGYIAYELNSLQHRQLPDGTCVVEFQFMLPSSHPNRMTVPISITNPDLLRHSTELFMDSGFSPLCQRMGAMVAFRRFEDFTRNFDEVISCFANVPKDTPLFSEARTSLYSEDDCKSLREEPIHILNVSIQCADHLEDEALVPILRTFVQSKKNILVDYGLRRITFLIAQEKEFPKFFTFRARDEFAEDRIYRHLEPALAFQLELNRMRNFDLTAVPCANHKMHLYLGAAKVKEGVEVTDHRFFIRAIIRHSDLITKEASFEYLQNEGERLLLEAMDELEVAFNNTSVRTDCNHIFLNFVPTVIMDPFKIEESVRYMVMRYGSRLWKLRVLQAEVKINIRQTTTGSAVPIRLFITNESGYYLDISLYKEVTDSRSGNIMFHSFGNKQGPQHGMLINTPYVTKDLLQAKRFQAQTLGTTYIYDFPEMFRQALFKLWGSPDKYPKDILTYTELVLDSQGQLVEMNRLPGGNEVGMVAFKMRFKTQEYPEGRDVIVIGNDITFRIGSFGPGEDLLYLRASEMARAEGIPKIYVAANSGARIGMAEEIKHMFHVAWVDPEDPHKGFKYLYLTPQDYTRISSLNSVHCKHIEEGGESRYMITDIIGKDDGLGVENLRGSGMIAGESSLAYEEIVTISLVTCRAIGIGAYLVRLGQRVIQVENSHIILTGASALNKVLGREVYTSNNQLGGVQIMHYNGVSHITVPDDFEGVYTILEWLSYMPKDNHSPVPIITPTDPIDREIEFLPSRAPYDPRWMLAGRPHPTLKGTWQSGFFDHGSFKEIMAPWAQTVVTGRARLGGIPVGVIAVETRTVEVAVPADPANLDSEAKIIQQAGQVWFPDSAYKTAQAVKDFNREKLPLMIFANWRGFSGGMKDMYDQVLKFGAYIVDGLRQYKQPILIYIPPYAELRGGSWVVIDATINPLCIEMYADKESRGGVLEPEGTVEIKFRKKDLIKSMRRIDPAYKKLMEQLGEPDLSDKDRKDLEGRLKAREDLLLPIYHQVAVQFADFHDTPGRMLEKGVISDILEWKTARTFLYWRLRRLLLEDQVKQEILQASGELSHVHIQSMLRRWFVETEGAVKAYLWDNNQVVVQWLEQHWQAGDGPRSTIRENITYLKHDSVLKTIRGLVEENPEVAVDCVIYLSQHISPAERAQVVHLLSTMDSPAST
Sequence of fungal (fACC2) (Q00955 whole entry): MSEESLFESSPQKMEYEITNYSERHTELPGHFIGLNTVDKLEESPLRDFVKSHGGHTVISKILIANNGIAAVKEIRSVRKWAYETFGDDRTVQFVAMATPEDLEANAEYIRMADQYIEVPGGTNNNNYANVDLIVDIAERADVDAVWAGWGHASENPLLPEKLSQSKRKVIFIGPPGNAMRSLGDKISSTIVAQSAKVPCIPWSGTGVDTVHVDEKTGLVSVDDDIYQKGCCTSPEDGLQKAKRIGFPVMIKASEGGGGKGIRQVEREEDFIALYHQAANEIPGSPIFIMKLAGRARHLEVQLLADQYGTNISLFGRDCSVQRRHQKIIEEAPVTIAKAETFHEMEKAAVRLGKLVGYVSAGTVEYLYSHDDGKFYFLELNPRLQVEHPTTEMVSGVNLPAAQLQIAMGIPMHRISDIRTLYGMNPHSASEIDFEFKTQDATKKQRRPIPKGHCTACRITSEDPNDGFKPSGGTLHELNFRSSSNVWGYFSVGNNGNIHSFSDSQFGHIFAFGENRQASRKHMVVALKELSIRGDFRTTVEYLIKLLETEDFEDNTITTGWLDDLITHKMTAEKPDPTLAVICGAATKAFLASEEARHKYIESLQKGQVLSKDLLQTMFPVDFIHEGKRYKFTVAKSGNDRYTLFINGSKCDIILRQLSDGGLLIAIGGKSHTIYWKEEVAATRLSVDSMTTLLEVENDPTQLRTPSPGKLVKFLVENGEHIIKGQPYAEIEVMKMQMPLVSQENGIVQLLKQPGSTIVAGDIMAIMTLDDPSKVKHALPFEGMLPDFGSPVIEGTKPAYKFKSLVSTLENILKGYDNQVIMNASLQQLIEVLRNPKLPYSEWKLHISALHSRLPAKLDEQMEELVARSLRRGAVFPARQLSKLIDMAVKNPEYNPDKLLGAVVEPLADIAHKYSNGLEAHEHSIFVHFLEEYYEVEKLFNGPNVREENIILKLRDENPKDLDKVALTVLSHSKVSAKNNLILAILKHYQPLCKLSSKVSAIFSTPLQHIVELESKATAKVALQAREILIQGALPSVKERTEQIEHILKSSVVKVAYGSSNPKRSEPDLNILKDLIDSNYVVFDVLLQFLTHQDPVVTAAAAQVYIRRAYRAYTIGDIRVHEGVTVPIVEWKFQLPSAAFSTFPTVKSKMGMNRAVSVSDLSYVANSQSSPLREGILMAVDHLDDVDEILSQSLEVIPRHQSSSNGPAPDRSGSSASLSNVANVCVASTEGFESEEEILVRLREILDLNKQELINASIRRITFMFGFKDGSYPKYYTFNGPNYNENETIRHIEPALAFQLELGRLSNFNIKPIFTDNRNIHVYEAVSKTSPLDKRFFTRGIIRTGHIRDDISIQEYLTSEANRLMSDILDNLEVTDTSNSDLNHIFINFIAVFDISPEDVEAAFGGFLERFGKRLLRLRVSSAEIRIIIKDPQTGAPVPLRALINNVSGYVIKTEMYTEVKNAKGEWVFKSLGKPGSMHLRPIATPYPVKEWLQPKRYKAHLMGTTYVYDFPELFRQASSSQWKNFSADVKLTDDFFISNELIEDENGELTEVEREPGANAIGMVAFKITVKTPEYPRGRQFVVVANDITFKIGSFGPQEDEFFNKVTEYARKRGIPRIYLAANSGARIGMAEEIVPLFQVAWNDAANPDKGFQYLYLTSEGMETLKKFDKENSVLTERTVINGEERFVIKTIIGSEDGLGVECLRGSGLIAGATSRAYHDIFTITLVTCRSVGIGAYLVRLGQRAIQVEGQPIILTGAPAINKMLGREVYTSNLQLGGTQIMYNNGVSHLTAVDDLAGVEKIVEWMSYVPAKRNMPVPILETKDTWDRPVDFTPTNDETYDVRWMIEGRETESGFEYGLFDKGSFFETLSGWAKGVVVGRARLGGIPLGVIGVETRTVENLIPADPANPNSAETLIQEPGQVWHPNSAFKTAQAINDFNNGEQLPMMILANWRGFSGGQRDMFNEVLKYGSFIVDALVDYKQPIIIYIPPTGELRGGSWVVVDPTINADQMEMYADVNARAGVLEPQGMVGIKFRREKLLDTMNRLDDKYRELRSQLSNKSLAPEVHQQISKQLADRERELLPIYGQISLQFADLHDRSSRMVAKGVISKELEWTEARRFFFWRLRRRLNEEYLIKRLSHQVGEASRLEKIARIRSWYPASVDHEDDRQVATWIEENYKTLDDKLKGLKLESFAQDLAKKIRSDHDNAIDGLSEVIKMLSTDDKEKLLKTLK

As to `COc1ccc(F)cc1[C@](C)(Cn1c(=O)n(C(C)(C)C(=O)NC(C)C)c(=O)c2c(C)c(-n3nccn3)sc21)OCCC#N` [Compound I-229], the values for the IC50 at fungal (fACC2) and on human (hACC2) were 1 to 5 nM and greater than 40 nM, respectively. The IC90 was greater than 50 µg/mL in the experiment on Septoria tritici (St) (setting [5]); 0.4 µg/mL (≈ 0.654 µM) with Botrtyis cinerea (Bc) (setting [6]); greater than 50 µg/mL in [1] (setting [7]); 2 µg/mL (≈ 3.27 µM) in the experiment on Rhizoctonia solani (Rs) (setting [8]); 0.08 µg/mL (≈ 0.131 µM) in experiment [2] (setting [9]); 0.4 µg/mL (≈ 0.654 µM) in [3] (setting [13]). Also, the IC90 in experiment [4] (setting [14]) is 2 µg/mL (≈ 3.27 µM); in the experiment on Diplodia maydis (Dm) (setting [15]), greater than 50 µg/mL. Further, the results for the MIC in the experiment with C. krusei (setting [10]), in the experiment on C. parapsilosis (setting [11]) and in the experiment on C. albicans (setting [12]) were 0.25 to 1 µg/mL (≈ 0.409 to 1.63 µM), 1.01 to 2 µg/mL (≈ 1.65 to 3.27 µM) and 0.25 to 1 µg/mL (≈ 0.409 to 1.63 µM), respectively.

Consider `COc1ccc(F)cc1[C@@](C)(Cn1c(=O)n(C(C)(C)C(=O)NC(C)C)c(=O)c2c(C)c(-n3nccn3)sc21)OCCC#N` [Compound I-230], for which the values for the half-inhibitory concentration (IC50) on fungal (fACC2) and against human (hACC2) were 0.3 to 1 nM and 10 to 40 nM, respectively. Besides, the IC90 is greater than 50 µg/mL with Septoria tritici (St) (setting [5]); 0.4 µg/mL (≈ 0.654 µM) in the experiment with Botrtyis cinerea (Bc) (setting [6]); 2 µg/mL (≈ 3.27 µM) in experiment [1] (setting [7]); 0.08 µg/mL (≈ 0.131 µM) in the experiment with Rhizoctonia solani (Rs) (setting [8]); 0.08 µg/mL (≈ 0.131 µM) in experiment [2] (setting [9]); 0.4 µg/mL (≈ 0.654 µM) in experiment [3] (setting [13]). Further, the IC90 in [4] (setting [14]) was 0.08 µg/mL (≈ 0.131 µM); in the experiment with Diplodia maydis (Dm) (setting [15]), 0.4 µg/mL (≈ 0.654 µM). In addition, the MIC – broadly, the smallest concentration in the dilution series that meets the test's criterion for growth inhibition – with C. krusei (setting [10]) fell in the range of 0.25 to 1 µg/mL (≈ 0.409 to 1.63 µM); in the experiment with C. parapsilosis (setting [11]), 1.01 to 2 µg/mL (≈ 1.65 to 3.27 µM); with C. albicans (setting [12]), 0.25 to 1 µg/mL (≈ 0.409 to 1.63 µM).

Consider `COc1ccc(F)cc1[C@@](O)(CCO)Cn1c(=O)n(C(C)(C)C(=O)NC(C)C)c(=O)c2c(C)c(-n3nccn3)sc21` [Compound I-231], for which the IC50 – broadly, the midpoint of a concentration-inhibition curve – on fungal (fACC2) lay within 1 to 5 nM; on human (hACC2) it was 10 to 40 nM. The IC90 in the experiment with Septoria tritici (St) (setting [16]) is greater than 50 µg/mL; in the experiment with Botrtyis cinerea (Bc) (setting [17]), 2 µg/mL (≈ 3.4 µM); in [1] (setting [18]), 10 µg/mL (≈ 17 µM); in the experiment on Rhizoctonia solani (Rs) (setting [19]), 0.08 µg/mL (≈ 0.136 µM); in [2], 0.4 µg/mL (≈ 0.68 µM); in experiment [3] (setting [23]), 2 µg/mL (≈ 3.4 µM). In addition, the IC90 (in [4] (setting [24]); with Diplodia maydis (Dm) (setting [25])) was 2 µg/mL (≈ 3.4 µM) in each case. Moreover, the figures for the MIC with C. krusei (setting [20]), in the experiment on C. parapsilosis (setting [21]) and in the experiment on C. albicans (setting [22]) were 0.06 to 0.249 µg/mL (≈ 0.102 to 0.423 µM), 1.01 to 2 µg/mL (≈ 1.72 to 3.4 µM) and 0.06 to 0.249 µg/mL (≈ 0.102 to 0.423 µM), respectively.

Turning to `Cc1c(-n2nccn2)sc2c1c(=O)n(C(C)(C)C(=O)NC(C)C)c(=O)n2C[C@H](OC(C)C)c1cc(F)ccc1CCC#N` [Compound I-234], the concentration for half-maximal inhibition (IC50) on fungal (fACC2) lay within 1 to 5 nM; against human (hACC2), 10 to 40 nM. Besides, the IC90 with Septoria tritici (St) (setting [16]) was greater than 50 µg/mL; in the experiment with Botrtyis cinerea (Bc) (setting [17]) it was 0.4 µg/mL (≈ 0.656 µM); in experiment [1] (setting [18]), greater than 50 µg/mL; in the experiment on Rhizoctonia solani (Rs) (setting [19]) it was 0.08 µg/mL (≈ 0.131 µM); in experiment [2] it was 0.08 µg/mL (≈ 0.131 µM); in experiment [3] (setting [23]), 0.08 µg/mL (≈ 0.131 µM). The IC90 came out at 0.4 µg/mL (≈ 0.656 µM) in experiment [4] (setting [24]) and 2 µg/mL (≈ 3.28 µM) in the experiment with Diplodia maydis (Dm) (setting [25]). For the same molecule, the MIC in the experiment on C. krusei (setting [20]) lay in the range of 1.01 to 2 µg/mL (≈ 1.66 to 3.28 µM); in the experiment with C. parapsilosis (setting [21]), 2.01 to 4 µg/mL (≈ 3.3 to 6.56 µM); in the experiment on C. albicans (setting [22]), 2.01 to 4 µg/mL (≈ 3.3 to 6.56 µM).

In the case of `Cc1c(-n2nccn2)sc2c1c(=O)n(C(C)(C)C(=O)NC(C)C)c(=O)n2C[C@H](OCC(C)(C)O)c1cc(F)ccc1OCC#N` [Compound I-235], the IC50 was in the range of 1 to 5 nM on fungal (fACC2) and 10 to 40 nM at human (hACC2). In addition, the IC90 in the experiment with Septoria tritici (St) (setting [16]) is greater than 50 µg/mL; in the experiment on Botrtyis cinerea (Bc) (setting [17]), 2 µg/mL (≈ 3.12 µM); in experiment [1] (setting [18]), 10 µg/mL (≈ 15.6 µM); in the experiment with Rhizoctonia solani (Rs) (setting [19]) it was 0.4 µg/mL (≈ 0.623 µM); in experiment [2], 0.4 µg/mL (≈ 0.623 µM); in [3] (setting [23]), 2 µg/mL (≈ 3.12 µM). In addition, the values for the IC90 (in [4] (setting [24]); with Diplodia maydis (Dm) (setting [25])) were 0.4 µg/mL (≈ 0.623 µM) and 2 µg/mL (≈ 3.12 µM), respectively. For the same molecule, the MIC with C. krusei (setting [20]) was in the range of 2.01 to 4 µg/mL (≈ 3.13 to 6.23 µM); in the experiment on C. parapsilosis (setting [21]), 1.01 to 2 µg/mL (≈ 1.57 to 3.12 µM); in the experiment on C. albicans (setting [22]), 0.25 to 1 µg/mL (≈ 0.39 to 1.56 µM).
